{"source": "patent EP0139891A2", "about": "“Pharmaceutical compositions with antibiotic-immunostimulating activity” (B.T.B. INDUSTRIA CHIMICA S.p.A., priority 1983, dated 1985)", "key": {"K562": {"system": "K562", "test": "Natural killer activity test on lymphocytes of treated patients", "type": "in vivo", "settings": "same patients and doses, percentage of aspecific lysis of K562", "method": "(§1) of F.F.001 was investigated in a clinical research on patients affected by chronic bronchial infection. The immunostimulating action was determined through the monitorage of the phagocytary and NK cells activity.\nThis test consists in the determination of the percentage of aspecific lysis of a human tumoral target, K562, mediated by circulating lymphocytes.\nThe lymphocytes were isolated by centrifuging heparinized blood at a 1:1 dilution with physiologic solution or with a solution of \"Hanks\" salts of \"Ficol\".\nAfter 30 min. of centrifugation at 1000 r.p.m. a band of stratified leucocytes was obtained over the \"Ficol\" level.\nAt the same time the K562 were labelled with ^51Cr by adding the radioisotope solution to a suspension containing […] in 0.5 ml of colture medium.\nAfter 45 min. of incubation at 37 degrees C the cells were washed three times with a solution of \"Hanks\" salts.\nThe labelled cells were then incubated with leucocytes at 37 degrees C at various ratios for 4 h, after which the percentage of […] release was determined in the supernatant and assumed to be directly proportional to the K562 cell lysis mediated by leucocytes.\n(§2) In the groups 1), 3), 4) and 5) the dose of erythromycin was always 1 gram; in the groups 2), 3), 4) and 5) the corresponding dose of inosine was 182 mg."}, "St Albus ATCC 12228": {"system": "St Albus ATCC 12228", "test": "Phagocytosis test on phagocytes of treated patients", "type": "in vivo", "settings": "patients with chronical bronchitis, erythromycin 1 gram and/or inosine 182 mg", "method": "as §1\n2 Ml of a phagocytes suspension (10^6 phagocy- tes/ml) was mixed up in a sterile test tube with 2 ml of St Albus ATCC 12228 (10^6 microorganisms/ ml) suspended in Gelatine \"Hanks-solution\" with 10% AB serum and 0.4 ml of AB serum.\nThe mixture was then incubated at 37 degrees C under continuous stirring. 2 Ml of St Albus ATCC 12228 suspended in gelatine \"Hanks-solution\" with 10% of AB serum (10^6 microorganisms/ml) were mixed up in another sterile test tube with 2.04 ml of Gelatine \"Hanks-solution\" and incubated under the same conditions described above.\nAt regular time intervals (0-30 min.-60 min.-90 min.) aliquots of the suspension corresponding to 0.5 ml were added to 1.5 Ml of Gelatine \"Hanks-so lution\" previously cooled to 4 degrees in order to stop the phagocytosis process.\nThe samples were then centrifuged for 4 min. at 110 r.p.m. in order to obtain the complete sedimen tation of the leucocytes, while the upper phase consisted of a suspension containing the bacteria (supernatant).\nThe supernatant liquid was then diluted with a\nsterile saline solution (Bacto-haemogglutination Soerensen buffer) at a 1:10 ratio, in order to be sure that at least the last dilution contained a number of living bacteria ranging between 100 and 1000/ml.\nAliquots of 0.1 ml of bacterial suspension were then taken from the […] dilutions and both of them were pipetted on a plate containing Diagnostic Sensitive Test Agar (Oxoid) and immedia tely distributed on the whole surface with a sterile spatula.\nThe plates were incubated at 37 degrees C for 24 h and the number of colonies was then determined with a colony counter.\nThe same procedure was followed after having withdrawn aliquots of 0.5 ml of bacterial suspension from the test tube.\nPhagocytosis, as a function of time, was determined in vitro and can be expressed as the reduction percent of the number of living bacteria deter mined at the beginning of the experiment (No). [formula]\nF(t) is the phagocytosis index after t min., while Nt is the number of living bacteria after t min.\nas §2"}, "S. pyogenes": {"system": "S. pyogenes", "test": "Antibacterial in vitro activity (M.I.C.)", "type": "cell-based", "settings": "micrograms of substance per ml of bacterial suspension", "method": "(§3) The M.I.C.s were determined against three pathogenic bacterial strains, and are expressed as micrograms of substance per ml of bacterial suspension […]."}, "H. influenzae": {"system": "H. influenzae", "test": "Antibacterial in vitro activity (M.I.C.)", "type": "cell-based", "settings": "micrograms of substance per ml of bacterial suspension", "method": "as §3"}, "S. aureus": {"system": "S. aureus", "test": "Antibacterial in vitro activity (M.I.C.)", "type": "cell-based", "settings": "micrograms of substance per ml of bacterial suspension", "method": "as §3"}, "pneumococ bacteria": {"system": "pneumococ bacteria", "test": "Antibacterial in vivo activity in infected rats", "design": "species or system Sprague-Dawley rats", "settings": "rats infected with LD100 of pneumococ bacteria; orally every twelve hours 25 mg/kg as erythromycin base; 8 days observation", "method": "60 Sprague-Dawley rats of both sexes (3 lots of 20 animals each) were infected with an LD100 of pneumococ bacteria. Said LD100 was determined in 10^6C.F.U. and was given to the rats through tracheal cannula. The death of the animals occurred at the 3rd-4th day. The observation period lasted 8 days.\nThe obtained results are reported in the fol lowing Table I and are expressed as per cent mortalities over the controls.\nBoth the dead and the survived animals underwent a hystological examination of the main organs, namely lungs, liver, kidneys, heart and brain."}, "[1]": {"test": "Acute toxicity after oral administration", "settings": "in vivo, rat"}, "[2]": {"settings": "0 hours (moment of administration)"}, "[3]": {"settings": "0 hours (moment of administration), reduction percent of living bacteria"}}, "note": "Counter-ions that a name gives are not always drawn.", "data": [{"molecule": "OC[C@H]1O[C@@H](n2cnc3c(O)ncnc32)[C@H](O)[C@@H]1O", "note": "[Inosine, inosine]", "values": [{"measurement": "NK-test", "setting": "K562; [2]", "result": "4.5-19.0"}, {"measurement": "NK-test", "setting": "K562; 2 hours after administration", "result": "10.0-56.5"}, {"measurement": "NK-test", "setting": "K562; 4 hours after administration", "result": "4.5-19.0"}, {"measurement": "NK-test", "setting": "K562; 6 hours after administration", "result": "4.5-19.0"}, {"measurement": "NK-test", "setting": "K562; 8 hours after administration", "result": "4.5-19.0"}, {"measurement": "NK-test", "setting": "K562; 24 hours after administration", "result": "4.5-19.0"}, {"measurement": "phagocytosis", "setting": "St Albus ATCC 12228; [3]", "result": "5-19"}, {"measurement": "phagocytosis", "setting": "St Albus ATCC 12228; 2 hours after administration", "result": "10-50"}, {"measurement": "phagocytosis", "setting": "St Albus ATCC 12228; 4 hours after administration", "result": "5-19"}, {"measurement": "phagocytosis", "setting": "St Albus ATCC 12228; 6 hours after administration", "result": "5-19"}, {"measurement": "phagocytosis", "setting": "St Albus ATCC 12228; 8 hours after administration", "result": "5-19"}, {"measurement": "phagocytosis", "setting": "St Albus ATCC 12228; 24 hours after administration", "result": "5-19"}]}, {"molecule": "CCC(=O)O[C@H]1[C@H](O[C@@H]2[C@@H](C)[C@H](O[C@H]3C[C@@](C)(OC)[C@@H](O)[C@H](C)O3)[C@@H](C)C(=O)O[C@H](CC)[C@@](C)(O)[C@H](O)[C@@H](C)C(=O)[C@H](C)C[C@@]2(C)O)O[C@H](C)C[C@@H]1N(C)C", "note": "[Er. prop., erythromycin propionate]", "values": [{"measurement": "MIC", "setting": "S. pyogenes; Streptococcus pyogenes, read-out: minimum inhibiting concentration (M.I.C.)", "result": 0.04, "unit": "µg/mL"}, {"measurement": "MIC", "setting": "H. influenzae; Haemophilus influenzae, read-out: minimum inhibiting concentration (M.I.C.)", "result": 0.31, "unit": "µg/mL"}, {"measurement": "MIC", "setting": "S. aureus; Staphylococcus aureus, read-out: minimum inhibiting concentration (M.I.C.)", "result": 0.35, "unit": "µg/mL"}, {"measurement": "Mortality", "setting": "pneumococ bacteria", "result": 5, "unit": "%"}]}, {"molecule": "CC[C@H]1OC(=O)[C@H](C)[C@@H](O[C@H]2C[C@@](C)(OC)[C@@H](O)[C@H](C)O2)[C@H](C)[C@@H](O[C@@H]2O[C@H](C)C[C@H](N(C)C)[C@H]2O)[C@](C)(O)C[C@@H](C)C(=O)[C@H](C)[C@@H](O)[C@]1(C)O", "note": "[Erythromycin, erythromycin]", "values": [{"measurement": "NK-test", "setting": "K562; [2]", "result": "7.4-23.0"}, {"measurement": "NK-test", "setting": "K562; 2 hours after administration", "result": "7.4-23.0"}, {"measurement": "NK-test", "setting": "K562; 4 hours after administration", "result": "7.4-23.0"}, {"measurement": "NK-test", "setting": "K562; 6 hours after administration", "result": "7.4-23.0"}, {"measurement": "NK-test", "setting": "K562; 8 hours after administration", "result": "45.3-67.8"}, {"measurement": "NK-test", "setting": "K562; 24 hours after administration", "result": "7.4-23.0"}, {"measurement": "LD50", "setting": "[1]", "result": "> 6000", "unit": "mg/kg"}, {"measurement": "phagocytosis", "setting": "St Albus ATCC 12228; [3]", "result": "8-24"}, {"measurement": "phagocytosis", "setting": "St Albus ATCC 12228; 2 hours after administration", "result": "8-24"}, {"measurement": "phagocytosis", "setting": "St Albus ATCC 12228; 4 hours after administration", "result": "8-24"}, {"measurement": "phagocytosis", "setting": "St Albus ATCC 12228; 6 hours after administration", "result": "8-24"}, {"measurement": "phagocytosis", "setting": "St Albus ATCC 12228; 8 hours after administration", "result": "31-60"}, {"measurement": "phagocytosis", "setting": "St Albus ATCC 12228; 24 hours after administration", "result": "8-24"}, {"measurement": "Mortality", "setting": "pneumococ bacteria", "result": 5, "unit": "%"}]}, {"molecule": "salt of erythromycin propionate with inosine-5-phosphoric acid in the molar ratio 2:1 [F.F.001]", "values": [{"measurement": "minimum inhibiting concentration (M.I.C.)", "setting": "S. pyogenes", "result": "0.036 ℓ/ml"}, {"measurement": "minimum inhibiting concentration (M.I.C.)", "setting": "H. influenzae", "result": "0.31 ℓ/ml"}, {"measurement": "minimum inhibiting concentration (M.I.C.)", "setting": "S. aureus", "result": "0.31 ℓ/ml"}, {"measurement": "NK-test", "setting": "K562; [2]", "result": "4.9-21.7"}, {"measurement": "NK-test", "setting": "K562; 2 hours after administration", "result": "45.8-68"}, {"measurement": "NK-test", "setting": "K562; 4 hours after administration", "result": "47.3-70.1"}, {"measurement": "NK-test", "setting": "K562; 6 hours after administration", "result": "48.0-71.1"}, {"measurement": "NK-test", "setting": "K562; 8 hours after administration", "result": "50.2-74.2"}, {"measurement": "NK-test", "setting": "K562; 24 hours after administration", "result": "4.9-21.7"}, {"measurement": "phagocytosis", "setting": "St Albus ATCC 12228; [3]", "result": "5-20"}, {"measurement": "phagocytosis", "setting": "St Albus ATCC 12228; 2 hours after administration", "result": "16-62"}, {"measurement": "phagocytosis", "setting": "St Albus ATCC 12228; 4 hours after administration", "result": "16-62"}, {"measurement": "phagocytosis", "setting": "St Albus ATCC 12228; 6 hours after administration", "result": "16-62"}, {"measurement": "phagocytosis", "setting": "St Albus ATCC 12228; 8 hours after administration", "result": "34-82"}, {"measurement": "phagocytosis", "setting": "St Albus ATCC 12228; 24 hours after administration", "result": "5-20"}, {"measurement": "Mortality", "setting": "pneumococ bacteria", "result": 0, "unit": "%"}]}, {"molecule": "CCOC(=O)CCC(=O)O[C@H]1[C@H](O[C@@H]2[C@@H](C)[C@H](O[C@H]3C[C@@](C)(OC)[C@@H](O)[C@H](C)O3)[C@@H](C)C(=O)O[C@H](CC)[C@@](C)(O)[C@H](O)[C@@H](C)C(=O)[C@H](C)C[C@@]2(C)O)O[C@H](C)C[C@@H]1N(C)C", "note": "[F.F.002, salt of erythromycin ethylsuccinate with inosine-5-phosphoric acid in the molar ratio 2:1]", "values": [{"measurement": "NK-test", "setting": "K562; [2]", "result": "5.2-17.8"}, {"measurement": "NK-test", "setting": "K562; 2 hours after administration", "result": "44.9-68.2"}, {"measurement": "NK-test", "setting": "K562; 4 hours after administration", "result": "46.1-69.8"}, {"measurement": "NK-test", "setting": "K562; 6 hours after administration", "result": "50.1-71.8"}, {"measurement": "NK-test", "setting": "K562; 8 hours after administration", "result": "52.9-76.1"}, {"measurement": "NK-test", "setting": "K562; 24 hours after administration", "result": "5.2-17.8"}, {"measurement": "phagocytosis", "setting": "St Albus ATCC 12228; [3]", "result": "5-20"}, {"measurement": "phagocytosis", "setting": "St Albus ATCC 12228; 2 hours after administration", "result": "16-62"}, {"measurement": "phagocytosis", "setting": "St Albus ATCC 12228; 4 hours after administration", "result": "16-62"}, {"measurement": "phagocytosis", "setting": "St Albus ATCC 12228; 6 hours after administration", "result": "16-62"}, {"measurement": "phagocytosis", "setting": "St Albus ATCC 12228; 8 hours after administration", "result": "34-82"}, {"measurement": "phagocytosis", "setting": "St Albus ATCC 12228; 24 hours after administration", "result": "5-20"}]}]}
